Assay results reported in US8450522B2, “Conformationally constrained carboxylic acid derivatives useful for treating metabolic disorders” (Amgen Inc., priority 2008, dated 2013).

Target: GPR40 (Homo sapiens, UniProt O14842)
Test: Cell-based aequorin assay (CHO cells stably transfected with GPR40 and aequorin)
Design: expressed in transfected cells
Settings: activation of human GPR40, CHO cells, 0.01% HSA
Protocol: Briefly, the Aequorin assays were performed on doubly stable CHO cells expressing GPR40 and Aequorin DNA. […] The luminescence was recorded over a period of 20 seconds with a Microlumat luminometer (Berthold).
Cell-based aequorin assays were employed to characterize the modulatory activity of compounds on the GPR40 signaling pathway. In an exemplary assay, CHO cells were stably transfected with both GPR40 and Aequorin (Euroscreen). Cells were detached from the tissue culture dish with 2 mL of trypsin (0.25% (w/v)). Trypsinization was halted with 28 mL of Hanks Buffered Salt Solution containing 20 mM Hepes (H/HBSS) and 0.01% fatty acid-free human serum albumin (HSA). Coelantrazine is added to 1 ug/mL, and the cells were incubated for 2 hours at room temperature. Compounds were dissolved in DMSO for preparation of 10 mM stock solutions. Compounds were diluted in H/HBSS containing 0.01% HSA. Serial dilutions of the test compounds were prepared to determine dose response.
Aequorin luminescence measurements were made using an EG&G Berthold 96-well luminometer, and the response was measured over a 20 second interval after cells and compounds were mixed. The maximum relative light units was plotted to determine dose response. The EC50 (effective concentration to reach 50% maximal response) was determined from the dose response plot.

Chain of GPR40 (O14842 whole entry): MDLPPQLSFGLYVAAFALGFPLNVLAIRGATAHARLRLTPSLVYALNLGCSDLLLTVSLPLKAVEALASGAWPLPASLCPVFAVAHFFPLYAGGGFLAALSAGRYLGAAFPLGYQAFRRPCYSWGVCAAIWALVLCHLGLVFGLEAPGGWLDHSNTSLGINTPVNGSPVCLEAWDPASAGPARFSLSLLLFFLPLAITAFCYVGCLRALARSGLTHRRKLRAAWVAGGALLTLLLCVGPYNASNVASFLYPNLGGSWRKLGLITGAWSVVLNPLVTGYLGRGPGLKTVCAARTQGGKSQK

Structure (SMILES) | EC50
COc1ccc(F)c(-c2ccc(COc3ccc4c(c3)[C@@H](CC(=O)O)C4)cc2C(C)(C)C)c1 (single isomer, unassigned) [Example 4, ((7R)-4-(((2-(1,1-Dimethylethyl)-2′-fluoro-5′-(methyloxy)-1,1′-biphenyl-4-yl)methyl)oxy)bicyclo[4.2.0]octa-1,3,5-trien-7-yl)acetic acid or ((7R)-4-(((2-(1,1-dimethylethyl)-2′-fluoro-5′-(methyloxy)-1,1′-biphenyl-4-yl)methyl)oxy)bicyclo[4.2.0]octa-1,3,5-trien-7-yl)acetic acid] | > 10000 nM
COc1ccc(F)c(-c2ccc(COc3ccc4c(c3)CC[C@@H]4CC(=O)O)cc2C(C)(C)C)c1 (single isomer, unassigned) [Example 5, (R)-Methyl 2-(5-(3-t-butyl-4-(2-fluoro-5-methoxyphenyl)benzyloxy)-2,3-dihydro-1H-inden-1-yl)acetic acid or (S)-methyl 2-(5-(3-t-butyl-4-(2-fluoro-5-methoxyphenyl)benzyloxy)-2,3-dihydro-1H-inden-1-yl)acetic acid] | 1000 to 10000 nM
COc1ccc(F)c(-c2ccc(COc3ccc4c(c3)[C@@H](CC(=O)O)C(C)(C)C4)cc2C2=CCCC2(C)C)c1 (single isomer, unassigned) [Example 9, ((1S)-6-(((2-(5,5-Dimethyl-1-cyclopenten-1-yl)-2′-fluoro-5′-(methyloxy)-1,1′-biphenyl-4-yl)methyl)oxy)-2,2-dimethyl-2,3-dihydro-1H-inden-1-yl)acetic acid or ((1R)-6-(((2-(5,5-dimethyl-1-cyclopenten-1-yl)-2′-fluoro-5′-(methyloxy)-1,1′-biphenyl-4-yl)methyl)oxy)-2,2-dimethyl-2,3-dihydro-1H-inden-1-yl)acetic acid] | 100 to 1000 nM
COc1ccc(F)c(-c2ccc(COc3ccc4c(c3)[C@H](CC(=O)O)C(C)(C)C4)cc2C(C)(C)C)c1 (single isomer, unassigned) [Example 10, ((1R)-6-(((2-(1,1-Dimethylethyl)-2′-fluoro-5′-(methyloxy)-1,1′-biphenyl-4-yl)methyl)oxy)-2,2-dimethyl-2,3-dihydro-1H-inden-1-yl)acetic acid or ((1S)-6-(((2-(1,1-dimethylethyl)-2′-fluoro-5′-(methyloxy)-1,1′-biphenyl-4-yl)methyl)oxy)-2,2-dimethyl-2,3-dihydro-1H-inden-1-yl)acetic acid] | 1000 to 10000 nM
C=CC(C)(C)[C@H](O)c1cc(COc2ccc3c(c2)[C@@H]([C@@H](C)C(=O)O)CC3)ccc1-c1cc(OC)ccc1F (single isomer, unassigned) [Example 28, 2-((1R)-6-(((2′-Fluoro-2-((1S)-1-hydroxy-2,2-dimethyl-3-butenyl)-5′-(methyloxy)-1,1′-biphenyl-4-yl)methyl)oxy)-2,3-dihydro-1H-inden-1-yl)propanoic acid or stereoisomer thereof] | 1000 to 10000 nM
COc1ccc(F)c(-c2ccc(COc3ccc4c(c3)C[C@@H]4CC(=O)O)cc2C(C)(C)C)c1 (single isomer, unassigned) [Example 29, ((7S)-3-((2′-Fluoro-5′-methoxy-2-(2-methyl-2-propanyl)-4-biphenylyl)methoxy)bicycle[4.2.0]octa-1,3,5-trien-7-yl)acetic acid or ((7R)-3-((2′-fluoro-5′-methoxy-2-(2-methyl-2-propanyl)-4-biphenylyl)methoxy)bicycle[4.2.0]octa-1,3,5-trien-7-yl)acetic acid] | 1000 to 10000 nM

Continued, values first:

EC50 | Structure (SMILES)
1000 to 10000 nM | COc1ccc(F)c(-c2ccc(COc3ccc4c(c3)[C@H](CC(=O)O)C4)cc2C(C)(C)C)c1 (single isomer, unassigned) [Example 3, (R)-2-(5-(3-t-Butyl-4-(2-fluoro-5-methoxyphenyl)benzyloxy)-1,2-dihydrocyclobutabenzen-1-yl)acetic acid or (S)-2-(5-(3-t-butyl-4-(2-fluoro-5-methoxyphenyl)benzyloxy)-1,2-dihydrocyclobutabenzen-1-yl)acetic acid]
1000 to 10000 nM | COc1ccc(F)c(-c2ccc(COc3ccc4c(c3)[C@@H](CC(=O)O)C(C)(C)C4)cc2C(C)(C)C)c1 (single isomer, unassigned) [Example 8, ((1S)-6-(((2-(1,1-Dimethylethyl)-2′-fluoro-5′-(methyloxy)-1,1′-biphenyl-4-yl)methyl)oxy)-2,2-dimethyl-2,3-dihydro-1H-inden-1-yl)acetic acid or ((1R)-6-(((2-(1,1-dimethylethyl)-2′-fluoro-5′-(methyloxy)-1,1′-biphenyl-4-yl)methyl)oxy)-2,2-dimethyl-2,3-dihydro-1H-inden-1-yl)acetic acid]
100 to 1000 nM | COc1ccc(F)c(-c2ccc(COc3ccc4c(c3)[C@@H](C(C)(C)C(=O)O)CC4)cc2C2=CCCC2(C)C)c1 (single isomer, unassigned) [Example 11, 2-((1S)-6-(((2-(5,5-Dimethyl-1-cyclopenten-1-yl)-2′-fluoro-5′-(methyloxy)-1,1′-biphenyl-4-yl)methyl)oxy)-2,3-dihydro-1H-inden-1-yl)-2-methylpropanoic acid or 2-((1R)-6-(((2-(5,5-dimethyl-1-cyclopenten-1-yl)-2′-fluoro-5′-(methyloxy)-1,1′-biphenyl-4-yl)methyl)oxy)-2,3-dihydro-1H-inden-1-yl)-2-methylpropanoic acid]
100 to 1000 nM | COc1ccc(F)c(-c2ccc(COc3ccc4c(c3)[C@@H](C(C)(C)C(=O)O)CC4)cc2C(C)(C)C)c1 (single isomer, unassigned) [Example 12, 2-((1S)-6-(((2-(1,1-Dimethylethyl)-2′-fluoro-5′-(methyloxy)-1,1′-biphenyl-4-yl)methyl)oxy)-2,3-dihydro-1H-inden-1-yl)-2-methylpropanoic acid or 2-((1R)-6-(((2-(1,1-Dimethylethyl)-2′-fluoro-5′-(methyloxy)-1,1′-biphenyl-4-yl)methyl)oxy)-2,3-dihydro-1H-inden-1-yl)-2-methylpropanoic acid]
1000 to 10000 nM | COc1cccc(-c2ccc(COc3ccc4c(c3)[C@@H](CC(=O)O)CC4)cc2C(C)(C)C)c1 (single isomer, unassigned) [Example 25, ((1R)-6-(((2-(1,1-Dimethylethyl)-3′-(methyloxy)-1,1′-biphenyl-4-yl)methyl)oxy)-2,3-dihydro-1H-inden-1-yl)acetic acid or ((1S)-6-(((2-(1,1-dimethylethyl)-3′-(methyloxy)-1,1′-biphenyl-4-yl)methyl)oxy)-2,3-dihydro-1H-inden-1-yl)acetic acid]
1000 to 10000 nM | COc1cccc(-c2ccc(COc3ccc4c(c3)[C@@H]([C@@H](C)C(=O)O)CC4)cc2C(C)(C)C)c1 (single isomer, unassigned) [Example 26, 2-((1R)-6-(((2-(1,1-dimethylethyl)-3′-(methyloxy)-1,1′-biphenyl-4-yl)methyl)-oxy)-2,3-dihydro-1H-inden-1-yl)propanoic acid or stereoisomer thereof]
1000 to 10000 nM | CCC(C)(C)[C@H](OC)c1cc(COc2ccc3c(c2)[C@@H]([C@@H](C)C(=O)O)CC3)ccc1-c1cc(OC)ccc1F (single isomer, unassigned) [Example 27, 2-((1R)-6-(((2-((1R)-2,2-Dimethyl-1-(methyloxy)butyl)-2′-fluoro-5′-(methyloxy)-1,1′-biphenyl-4-yl)methyl)oxy)-2,3-dihydro-1H-inden-1-yl)propanoic acid (27) or stereoisomer thereof]
